For assay [1], the system named is SH-SY5Y. In words: Neuroprotective activity against H2O2-induced neurotoxicity in human SH-SY5Y cells assessed as cell survival at 1 uM incubated for 2 hrs before H2O2 challenge measured after 24 hrs by MTT assay. As to conditions: for viability at 1 µM: Homo sapiens, SH-SY5Y, read-out: Activity. It counts as functional. In general terms: Tetrazolium dyes change colour on reduction, which living cells bring about.

Assay [2] relates to SH-SY5Y. The assay can be described thus: Neuroprotective activity against H2O2-induced neurotoxicity in human SH-SY5Y cells assessed as cell survival at 10 uM incubated for 2 hrs before H2O2 challenge measured after 24 hrs by MTT assay. It counts as functional. Particulars: for viability at 10 µM: Homo sapiens, SH-SY5Y, read-out: Activity.

Turning to `COc1cc2c(c(OC)c1OC)-c1c(cc3c(c1OC)OCO3)[C@H](OC(C)=O)[C@H](C)[C@H](C)C2` (stereo in doubt; 1) [KADSURIN], the viability at 1 µM with SH-SY5Y [1] came out at 58.9%. Also, the viability at 10 µM in the assay with SH-SY5Y [2] came out at 51.7%.

Take `COc1cc2c(c(OC)c1OC)-c1c(cc3c(c1OC)OCO3)[C@H](OC(C)=O)[C@H](C)[C@H](C)C2` (stereo in doubt; 16) [KADSURIN]: the Activity with SH-SY5Y [1] turned out to be 56.3%; in the assay with SH-SY5Y [2], 49.7%.

For `COc1cc2c(c(OC)c1OC)-c1c(cc3c(c1OC)OCO3)[C@@H](OC(C)=O)[C@@H](C)[C@H](C)C2=O` [ANANOLIGNAN B], the viability at 1 µM with SH-SY5Y [1] was found to be 59.7%. For the same compound, in the assay with SH-SY5Y [2], the viability at 10 µM is 69.6%.

On to `COc1cc2c(c(OC)c1OC)-c1c(cc3c(c1OC)OCO3)[C@H](O)[C@H](C)[C@H](C)[C@@H]2O` [ANANOLIGNAN C], for which, in the assay with SH-SY5Y [1], the viability at 1 µM was found to be 57.7%. Further, in the assay on SH-SY5Y [2], the viability at 10 µM was found to be 59.6%.

For the compound `COc1cc2c(c(OC)c1OC)-c1c(cc3c(c1OC)OCO3)[C@H](OC(C)=O)[C@H](C)[C@H](C)[C@@H]2O` [ANANOLIGNAN D], in the assay on SH-SY5Y [1], the viability at 1 µM turned out to be 64.3%. Moreover, the viability at 10 µM in the assay with SH-SY5Y [2] worked out at 63%.

For the compound `COc1cc2c(c(OC)c1OC)-c1c(cc3c(c1OC)OCO3)[C@H](O)[C@H](C)[C@H](C)[C@H]2OC(C)=O` [ANANOLIGNAN E], the viability at 1 µM with SH-SY5Y [1] turned out to be 62%. In the assay on SH-SY5Y [2], the viability at 10 µM amounted to 56.3%.

Consider `COc1cc2c(c(OC)c1OC)-c1c(cc3c(c1OC)OCO3)[C@H](OC(C)=O)[C@H](C)[C@H](C)[C@H]2OC(C)=O` [ANANOLIGNAN F], for which the viability at 1 µM in the assay on SH-SY5Y [1] stood at 90%. Besides, the viability at 10 µM in the assay with SH-SY5Y [2] is 88.6%.

Regarding `CCC(=O)O[C@H]1c2cc3c(c(OC)c2-c2c(cc(OC)c(OC)c2OC)[C@H](OC(C)=O)[C@@H](C)[C@H]1C)OCO3` [ANANOLIGNAN G], the viability at 1 µM with SH-SY5Y [1] was 57.7%. For the same compound, the viability at 10 µM in the assay on SH-SY5Y [2] was 56.7%.

As for `COc1cc2c(c(OC)c1OC)-c1c(cc3c(c1OC)OCO3)[C@H](OC(=O)C(C)C)[C@H](C)[C@H](C)[C@H]2OC(C)=O` [ANANOLIGNAN H], the viability at 1 µM with SH-SY5Y [1] is 64.1%. Besides, the viability at 10 µM in the assay on SH-SY5Y [2] came out at 63.9%.

As for `CCCC(=O)O[C@H]1c2cc3c(c(OC)c2-c2c(cc(OC)c(OC)c2OC)[C@H](OC(C)=O)[C@@H](C)[C@H]1C)OCO3` [ANANOLIGNAN I], the viability at 1 µM in the assay with SH-SY5Y [1] came to 61.1%. Besides, the viability at 10 µM with SH-SY5Y [2] was found to be 60.1%.

Take `CCC(C)C(=O)O[C@H]1c2cc3c(c(OC)c2-c2c(cc(OC)c(OC)c2OC)[C@H](OC(C)=O)[C@@H](C)[C@H]1C)OCO3` (stereo partly drawn) [ANANOLIGNAN J]: the viability at 1 µM with SH-SY5Y [1] stood at 52.2%. In the assay on SH-SY5Y [2], the viability at 10 µM was determined as 55.1%.

Turning to `COc1cc2c(c(OC)c1OC)-c1c(cc3c(c1OC)OCO3)[C@H](OC(=O)c1ccccc1)[C@H](C)[C@H](C)[C@H]2OC(C)=O` [ANANOLIGNAN K], in the assay on SH-SY5Y [1], the viability at 1 µM came to 68.9%. The viability at 10 µM in the assay on SH-SY5Y [2] was 71.4%.

For `C/C=C(\C)C(=O)O[C@H]1c2cc(OC)c(OC)c(OC)c2-c2c(cc3c(c2OC)OCO3)[C@H](OC(C)=O)[C@H](C)[C@@H]1C` [ANANOLIGNAN L], in the assay on SH-SY5Y [1], the viability at 1 µM was 79.2%. Moreover, in the assay with SH-SY5Y [2], the viability at 10 µM turned out to be 66.9%.

For the compound `C/C=C(/C)C(=O)O[C@H]1c2cc(OC)c(OC)c(OC)c2-c2c(cc3c(c2OC)OCO3)[C@H](OC(=O)C(C)C)[C@H](C)[C@@H]1C` [ANANOLIGNAN M], in the assay with SH-SY5Y [1], the viability at 1 µM came to 74%. The viability at 10 µM in the assay with SH-SY5Y [2] was determined as 64.5%.

For the compound `C/C=C(/C)C(=O)O[C@H]1c2cc(OC)c(OC)c(OC)c2-c2c(cc3c(c2OC)OCO3)[C@H](OC(=O)CCC)[C@H](C)[C@@H]1C` [ANANOLIGNAN N], the viability at 1 µM in the assay on SH-SY5Y [1] amounted to 75%. Also, in the assay with SH-SY5Y [2], the viability at 10 µM was found to be 66.8%.

As to `C/C=C(\C)C(=O)O[C@H]1c2cc(OC)c(OC)c(OC)c2-c2c(cc3c(c2OC)OCO3)[C@H](O)[C@H](C)[C@@H]1C` [ANANOSIN A], in the assay with SH-SY5Y [1], the viability at 1 µM was 66.4%. Further, the viability at 10 µM with SH-SY5Y [2] is 68.2%.

On to `C/C=C(/C)C(=O)O[C@H]1c2cc(OC)c(OC)c(OC)c2-c2c(cc3c(c2OC)OCO3)[C@H](OC(C)=O)[C@H](C)[C@@H]1C` [INTERIOTHERIN C], for which the viability at 1 µM in the assay on SH-SY5Y [1] came out at 45.7%. In addition, the viability at 10 µM in the assay with SH-SY5Y [2] worked out at 53.6%.

As to `COc1cc2c(c(OC)c1OC)-c1c(cc3c(c1OC)OCO3)[C@H](O)[C@H](C)[C@H](C)C2` [ISOGOMISIN O], the viability at 1 µM in the assay on SH-SY5Y [1] amounted to 56.9%. The viability at 10 µM in the assay with SH-SY5Y [2] amounted to 56.7%.

As for `COc1cc2c(c(OC)c1OC)-c1c(cc3c(c1OC)OCO3)[C@H](O)[C@@H](C)[C@@H](C)C2` [YUNNANKADSURIN B], the viability at 1 µM with SH-SY5Y [1] was 41.7%. In addition, the viability at 10 µM in the assay on SH-SY5Y [2] turned out to be 60.1%.

These data come from ChEMBL document CHEMBL1781894, “Dibenzocyclooctadiene lignans with antineurodegenerative potential from Kadsura ananosma” (2011).
